Measured values taken from patent publication US11753378B2, “Ketamine compounds and processes for making and using them” (Zevra Therapeutics, Inc., priority 2021, dated 2023).

Experiments:
[1] = Pharmacokinetics of ketamine and norketamine in plasma after oral gavage; details: for norketamine exposure relative to ketamine exposure compared to unconjugated ketamine / release of ketamine compared to unconjugated ketamine: in words; for release of ketamine compared to unconjugated ketamine: administered orally
NMDA receptor = details: cited from earlier work
[2] = Pharmacokinetics of ketamine and norketamine in plasma after intranasal administration
[3] = analyte ketamine, oral, mean conjugate parameter/mean comparator parameter
[4] = analyte norketamine, oral, mean conjugate parameter/mean comparator parameter
[5] = oral gavage, ketamine % parameter/norketamine % parameter

Structure (SMILES): CC(C)[C@H](NC(=O)c1ccc[n+](COC(=O)N(C)[C@]2(c3ccccc3Cl)CCCCC2=O)c1)C(=O)O [S-10d, (S)-KTM-CO2CH2-nicotinoyl-Val]
- norketamine exposure relative to ketamine exposure compared to unconjugated ketamine ([1]; oral): reduced norketamine exposure relative to ketamine exposure

Structure (SMILES): CN(C(=O)OC[n+]1cccc(C(=O)N2CCC[C@H]2C(=O)O)c1)C1(c2ccccc2Cl)CCCCC1=O (stereo partly shown) [10f, KTM-CO2CH2-nicotinoyl-Pro]
- norketamine exposure relative to ketamine exposure compared to unconjugated ketamine ([1]; oral): reduced norketamine exposure relative to ketamine exposure

Structure (SMILES): NC1(c2ccccc2Cl)CCCCC1=O (stereo not shown) [norketamine]
- NMDA receptor antagonist potency compared to ketamine (NMDA receptor; statement in words): less potent antagonist

Structure (SMILES): CN(C(=O)OC[n+]1cccc(C(=O)N[C@@H](CCC(N)=O)C(=O)O)c1)C1(c2ccccc2Cl)CCCCC1=O (stereo partly shown) [10k, KTM-CO2CH2-nicotinoyl-Gln]
- norketamine exposure relative to ketamine exposure compared to unconjugated ketamine ([1]; oral): reduced norketamine exposure relative to ketamine exposure

Structure (SMILES): CC[C@H](C)[C@H](NC(=O)c1ccc[n+](COC(=O)N(C)C2(c3ccccc3Cl)CCCCC2=O)c1)C(=O)O (stereo partly shown) [10e, KTM-CO2CH2-nicotinoyl-Ile]
- norketamine exposure relative to ketamine exposure compared to unconjugated ketamine ([1]; oral): reduced norketamine exposure relative to ketamine exposure

Structure (SMILES): CN(C(=O)OC[n+]1cccc(C(=O)N[C@@H](CCCCN)C(=O)O)c1)C1(c2ccccc2Cl)CCCCC1=O (stereo partly shown) [10g, KTM-CO2CH2-nicotinoyl-Lys]
- release of ketamine compared to unconjugated ketamine [1]: extended or delayed release

Structure (SMILES): CSCC[C@H](NC(=O)c1ccc[n+](COC(=O)N(C)C2(c3ccccc3Cl)CCCCC2=O)c1)C(=O)O (stereo partly shown) [10s, KTM-CO2CH2-nicotinoyl-Met]
- norketamine exposure relative to ketamine exposure compared to unconjugated ketamine ([1]; oral): reduced norketamine exposure relative to ketamine exposure

Structure (SMILES): CN(CC(=O)O)C(=O)c1cc[n+](COC(=O)N(C)C2(c3ccccc3Cl)CCCCC2=O)cc1 (stereo not shown) [11b, KTM-CO2CH2-isonicotinoyl-Sar]
- release of ketamine compared to unconjugated ketamine [1]: extended or delayed release
- norketamine exposure relative to ketamine exposure compared to unconjugated ketamine ([1]; oral): reduced norketamine exposure relative to ketamine exposure

Structure (SMILES): CC(C)[C@H](NC(=O)c1ccc[n+](COC(=O)N(C)C2(c3ccccc3Cl)CCCCC2=O)c1)C(=O)O (stereo partly shown) [10d, KTM-CO2CH2-nicotinoyl-Val]
- norketamine exposure relative to ketamine exposure compared to unconjugated ketamine ([1]; oral): reduced norketamine exposure relative to ketamine exposure

Structure (SMILES): CN(C(=O)OCOC(=O)c1ccncc1)C1(c2ccccc2Cl)CCCCC1=O.Cl (stereo not shown) [3b, Isonicotinate-CH2OCO-KTM HCl]
- norketamine exposure relative to ketamine exposure compared to unconjugated ketamine ([1]; oral): reduced norketamine exposure relative to ketamine exposure

Structure (SMILES): CCOC(=O)CN(C)C(=O)c1ccc[n+](COC(=O)N(C)C2(c3ccccc3Cl)CCCCC2=O)c1.[Cl-] (racemic) [9b, KTM-CO2CH2-nicotinoyl-Sar(Et)]
- % AUC0-4 hr, relative oral bioavailability of ketamine vs study comparator (Ketamine HCl) [1, 3]: 123%
- % Cmax, relative oral bioavailability of ketamine vs study comparator (Ketamine HCl) [1, 3]: 124%
- % AUC0-4 hr, relative oral bioavailability of norketamine vs study comparator (Ketamine HCl) [1, 4]: 62.7%
- % Cmax, relative oral bioavailability of norketamine vs study comparator (Ketamine HCl) [1, 4]: 66.9%
- % Exposure Ratio Ketamine:Norketamine, AUC0-4 hr [1, 5]: 1.96
- % Exposure Ratio Ketamine:Norketamine, Cmax [1, 5]: 1.85
- norketamine exposure relative to ketamine exposure compared to unconjugated ketamine ([1]; oral): reduced norketamine exposure relative to ketamine exposure
- % AUC0-1 hr, relative intranasal bioavailability of ketamine vs study comparator (Ketamine HCl) ([2]; analyte ketamine, intranasal, mean conjugate parameter/mean comparator parameter): 68.1%
- % Cmax, relative intranasal bioavailability of ketamine vs study comparator (Ketamine HCl) ([2]; analyte ketamine, intranasal, mean conjugate parameter/mean comparator parameter, 10k: time course stopped at 0.5 hours): 62.0%
- % AUC0-1 hr, relative intranasal bioavailability of norketamine vs study comparator (Ketamine HCl) ([2]; analyte norketamine, intranasal, mean conjugate parameter/mean comparator parameter): 39.5%
- % Cmax, relative intranasal bioavailability of norketamine vs study comparator (Ketamine HCl) ([2]; analyte norketamine, intranasal, mean conjugate parameter/mean comparator parameter, 10k: time course stopped at 0.5 hours): 37.1%
- % Exposure Ratio PO:IN, Cmax ([2]; ketamine % parameter PO/ketamine % parameter IN): 2.00
- % Exposure Ratio PO:IN, AUC ([2]; ketamine % parameter PO/ketamine % parameter IN, AUC0-4 h for PO and AUC0-1 h for IN): 1.80

Structure (SMILES): CN[C@]1(c2ccccc2Cl)CCCCC1=O (single isomer, unassigned) [S(+) isomer, reference compound]
- NMDA receptor antagonist potency relative to the R(−) isomer (NMDA receptor; background statement): approximately three to four times that of the R(−) isomer
